Data: ChEMBL document CHEMBL4052588, “Design of a Biased Potent Small Molecule Inhibitor of the Bromodomain and PHD Finger-Containing (BRPF) Proteins Suitable for Cellular and in Vivo Studies” (J Med Chem, 2017)

Tests used:
[1] = target: Bromodomain-containing protein 7 (Homo sapiens, UniProt Q9NPI1); assay: Inhibition of human BRD7 expressed in Escherichia coli BL21 after 1 hr by BROMOscan assay
[2] = target: T1, Bromodomain-containing protein 9 (Homo sapiens) (UniProt Q9H8M2)
T1 sequence (whole entry): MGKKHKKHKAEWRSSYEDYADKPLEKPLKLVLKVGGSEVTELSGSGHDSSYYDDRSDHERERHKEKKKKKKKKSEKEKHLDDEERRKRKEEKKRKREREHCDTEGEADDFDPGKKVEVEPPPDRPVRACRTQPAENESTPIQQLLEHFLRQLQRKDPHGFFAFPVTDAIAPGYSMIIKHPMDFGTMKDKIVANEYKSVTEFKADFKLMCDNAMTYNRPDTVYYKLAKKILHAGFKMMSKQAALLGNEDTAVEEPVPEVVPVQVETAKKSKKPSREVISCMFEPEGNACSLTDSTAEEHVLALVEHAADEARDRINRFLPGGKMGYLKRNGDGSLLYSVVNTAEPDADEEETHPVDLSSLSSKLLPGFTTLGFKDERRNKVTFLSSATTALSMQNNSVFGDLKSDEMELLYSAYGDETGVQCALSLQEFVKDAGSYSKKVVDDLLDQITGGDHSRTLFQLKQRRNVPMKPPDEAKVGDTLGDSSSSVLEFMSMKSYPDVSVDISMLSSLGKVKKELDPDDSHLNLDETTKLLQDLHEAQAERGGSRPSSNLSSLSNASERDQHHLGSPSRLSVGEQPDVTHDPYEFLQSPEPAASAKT

[3] = test system: ASPC1; assay: Growth inhibition of human AsPC1 cells after 72 hrs; type: functional; details: ASPC1, 72 h
[4] = test system: OCI-LY19; assay: Growth inhibition of human OCI-LY19 cells after 72 hrs; type: functional; details: OCI-LY19, 72 h
[5] = target: T2, Bromodomain-containing protein 1 (Homo sapiens) (UniProt O95696)
T2 sequence (whole entry): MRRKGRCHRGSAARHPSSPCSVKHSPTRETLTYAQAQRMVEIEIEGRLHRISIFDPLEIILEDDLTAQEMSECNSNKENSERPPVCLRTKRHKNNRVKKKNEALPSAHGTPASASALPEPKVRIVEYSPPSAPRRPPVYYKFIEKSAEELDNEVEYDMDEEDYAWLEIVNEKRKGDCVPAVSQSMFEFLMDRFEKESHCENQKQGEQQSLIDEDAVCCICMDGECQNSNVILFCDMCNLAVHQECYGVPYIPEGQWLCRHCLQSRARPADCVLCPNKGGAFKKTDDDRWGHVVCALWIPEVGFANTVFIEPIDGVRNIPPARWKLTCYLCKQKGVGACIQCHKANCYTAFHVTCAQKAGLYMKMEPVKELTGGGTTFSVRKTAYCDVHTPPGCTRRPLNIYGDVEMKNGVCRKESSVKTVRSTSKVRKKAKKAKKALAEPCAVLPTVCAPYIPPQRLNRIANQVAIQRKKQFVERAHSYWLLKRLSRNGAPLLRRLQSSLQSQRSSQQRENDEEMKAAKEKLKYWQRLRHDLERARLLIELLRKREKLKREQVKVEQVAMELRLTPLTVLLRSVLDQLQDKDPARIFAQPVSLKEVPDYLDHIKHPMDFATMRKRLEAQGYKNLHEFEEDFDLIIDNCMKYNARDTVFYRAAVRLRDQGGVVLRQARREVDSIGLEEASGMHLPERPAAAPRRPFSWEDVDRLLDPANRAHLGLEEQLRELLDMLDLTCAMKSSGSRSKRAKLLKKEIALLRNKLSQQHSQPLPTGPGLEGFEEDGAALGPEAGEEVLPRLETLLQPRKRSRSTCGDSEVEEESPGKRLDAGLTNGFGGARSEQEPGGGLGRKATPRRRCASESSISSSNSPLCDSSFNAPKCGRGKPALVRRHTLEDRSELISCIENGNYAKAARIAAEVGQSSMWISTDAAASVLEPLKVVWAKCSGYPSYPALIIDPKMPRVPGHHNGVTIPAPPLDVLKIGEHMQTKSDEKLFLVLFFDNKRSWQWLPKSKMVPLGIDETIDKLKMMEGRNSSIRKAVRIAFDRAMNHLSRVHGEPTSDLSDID

[6] = target: T3, Bromodomain and PHD finger-containing protein 3 (Homo sapiens) (UniProt Q9ULD4)
T3 sequence (whole entry): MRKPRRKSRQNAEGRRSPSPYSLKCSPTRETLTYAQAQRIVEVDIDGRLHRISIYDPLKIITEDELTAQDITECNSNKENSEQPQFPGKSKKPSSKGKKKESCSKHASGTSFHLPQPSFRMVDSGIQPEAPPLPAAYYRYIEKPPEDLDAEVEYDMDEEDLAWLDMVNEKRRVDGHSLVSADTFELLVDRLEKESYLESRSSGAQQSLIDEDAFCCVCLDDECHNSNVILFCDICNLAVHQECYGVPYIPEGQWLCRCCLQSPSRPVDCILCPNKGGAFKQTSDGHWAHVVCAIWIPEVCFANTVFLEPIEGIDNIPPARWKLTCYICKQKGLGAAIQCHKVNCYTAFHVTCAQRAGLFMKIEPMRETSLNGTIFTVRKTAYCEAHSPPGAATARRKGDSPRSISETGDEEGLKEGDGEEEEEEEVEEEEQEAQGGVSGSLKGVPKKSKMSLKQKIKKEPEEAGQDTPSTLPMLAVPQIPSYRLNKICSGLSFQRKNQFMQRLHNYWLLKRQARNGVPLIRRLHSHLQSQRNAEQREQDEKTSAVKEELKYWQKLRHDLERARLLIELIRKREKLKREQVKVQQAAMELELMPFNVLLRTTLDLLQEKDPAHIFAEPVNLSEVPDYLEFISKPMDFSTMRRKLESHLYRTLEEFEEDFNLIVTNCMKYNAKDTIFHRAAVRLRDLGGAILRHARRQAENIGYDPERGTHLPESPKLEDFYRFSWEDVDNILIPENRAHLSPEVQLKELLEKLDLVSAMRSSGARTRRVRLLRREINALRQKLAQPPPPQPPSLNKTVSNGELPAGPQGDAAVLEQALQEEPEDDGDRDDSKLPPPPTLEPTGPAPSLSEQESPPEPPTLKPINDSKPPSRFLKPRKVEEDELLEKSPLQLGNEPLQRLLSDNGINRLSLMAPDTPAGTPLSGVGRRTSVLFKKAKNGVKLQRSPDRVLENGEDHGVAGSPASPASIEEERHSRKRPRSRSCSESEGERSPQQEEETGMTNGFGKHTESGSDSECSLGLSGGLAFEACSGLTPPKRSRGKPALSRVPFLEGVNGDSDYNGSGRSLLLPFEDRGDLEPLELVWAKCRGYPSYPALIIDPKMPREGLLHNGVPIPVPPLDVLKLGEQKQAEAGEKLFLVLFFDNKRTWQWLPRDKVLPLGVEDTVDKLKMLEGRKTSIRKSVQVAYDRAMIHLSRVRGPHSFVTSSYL

Sequence of Bromodomain-containing protein 7 (Q9NPI1 whole entry): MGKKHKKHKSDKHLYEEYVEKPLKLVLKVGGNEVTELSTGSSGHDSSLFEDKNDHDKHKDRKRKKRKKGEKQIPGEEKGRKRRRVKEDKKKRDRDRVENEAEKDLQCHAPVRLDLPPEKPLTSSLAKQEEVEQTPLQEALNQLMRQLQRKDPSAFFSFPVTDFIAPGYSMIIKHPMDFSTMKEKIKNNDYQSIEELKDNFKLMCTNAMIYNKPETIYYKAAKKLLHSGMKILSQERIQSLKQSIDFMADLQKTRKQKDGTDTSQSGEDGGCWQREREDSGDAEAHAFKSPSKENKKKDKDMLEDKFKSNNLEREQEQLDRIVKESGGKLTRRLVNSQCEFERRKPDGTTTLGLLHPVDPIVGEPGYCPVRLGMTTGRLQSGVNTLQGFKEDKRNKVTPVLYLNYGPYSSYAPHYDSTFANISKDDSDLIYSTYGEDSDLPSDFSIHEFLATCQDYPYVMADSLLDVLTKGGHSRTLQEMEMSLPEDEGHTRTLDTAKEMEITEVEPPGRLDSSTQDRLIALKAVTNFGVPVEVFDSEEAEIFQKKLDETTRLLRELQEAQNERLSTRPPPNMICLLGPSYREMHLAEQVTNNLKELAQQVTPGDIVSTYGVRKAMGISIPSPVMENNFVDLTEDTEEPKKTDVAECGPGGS

CCc1cc2cc(NS(=O)(=O)c3ccc(C#N)cc3)ccc2n(CC)c1=O showed an IC50 [1] of over 100000 nM.

Compound Cc1cc2cc(NS(=O)(=O)c3ccc(C#N)cc3)ccc2n(C)c1=O has a ΔTm [2] of 3.5 °C, a GI50 [3] of 1000 to 10000 nM and a GI50 [4] of 1000 to 10000 nM. The IC50 [1] was 82 nM, the ΔTm [5] was 5.1 °C and the ΔTm [6] was 4.5 °C.

For Cc1cc(C#N)ccc1S(=O)(=O)Nc1ccc2c(ccc(=O)n2C)c1, the ΔTm [2] was 2.2 °C, the ΔTm [5] was 3.4 °C and the ΔTm [6] was 2.4 °C.
